# In patent US7179819B2, “VLA-4 inhibitor compounds” (Daiichi Pharmaceutical Co., Ltd., priority 1999, dated 2007):
# “And” between values parts separate entries of the source, which are not always exact repeats. Identical values can stand only once. Counter-ions that a name gives are not always drawn.
# Experiments:
# in vivo [1] = conditions: female, Balb/c, mouse, po, 10 mg/kg
# Procedure: (§1) A compound was dissolved or suspended with an appropriate solvent at 1 mg/mL. Female Balb/c mice (7–9 weeks old) were given the compound orally. Blood samples were collected from the postcaval vein of the anesthetized mice after fifteen minutes. Serum was prepared and stored at −20° C. Serum concentration of the compound was determined from inhibitory activities of the diluted serum by a direct binding assay using VLA-4-expressing cells and VCAM-IgG fusion protein. Serum concentration determined by this method correlated well with the concentration determined by LC/MS/MS methodologies.
# eosinophil infiltration [2] = assay: Murine model of Ascaris-induced bronchial inflammation: eosinophil infiltration into bronchoalveolar lavage fluid; format: in vivo; conditions: mouse
# Procedure: The VLA-4 inhibitors may be further characterized in in vivo assays. One such assay examines the inhibition of eosinophil infiltration into the bronchoalveolar lavage fluid in the mouse (murine) model. In this assay, the animals are treated with cyclophosphamide on day 0. On days 2 and 14, the animals are immunized intraperitoneally with Ascaris suum extract. Seven days later, the animals are treated with various doses of the VLA-4 inhibitor. Shortly after drug administration, the animals are challenged with Ascaris suum extract by instillation into the trachea. Bronchoalveolar lavage of the animal is performed by instilling saline into the lung, 48 hours later. Total cell and eosinophil counts in the lavage are determined.
# [3] = Mouse bio-assay: serum concentration after oral dosing, determined by direct binding assay of diluted serum
# Procedure: as §1
# [4] = Pharmacokinetic evaluation in rat; format: in vivo; conditions: for AUC (total area under the plasma concentration versus time curve): LC/MS/MS; for clearance / MRT: plasma, 10 mg/kg; for clearance: read-out: CL (apparent plasma clearance); for MRT: read-out: MRT (mean residence time)
# [5] = system: accelerated coronary arteriopathy; conditions: Molossi et al. 1995; cited from earlier work
# [6] = system: VLA-4-mediated lymphocyte adherence; conditions: Molossi et al. 1995; cited from earlier work
# eosinophil infiltration [7] = assay: Eosinophil accumulation model in the rat (Compound 48/80 injected into pleural cavities); format: in vivo, male Sprague Dawley rats; conditions: b.i.d. at 0 and 8 hours
# Procedure: The compounds of the present invention may also be further characterized in other in vivo assays, such as the eosioophil accumulation model tested in the rat. Fifty μg of Compound 48/80 was injected into the pleural cavities of male Sprague Dawley rats. After 24 hrs, each cavity was washed twice with Hank's Balanced Salt Solution containing 0.2% EDTA. Total cell and eosinophil counts were determined. Test compounds were given intraveneously, orally or subcutaneously, b.i.d. at 0 and 8 hours.
# [8] = Pharmacokinetic evaluation in mouse; format: in vivo; conditions: for AUC (total area under the plasma concentration versus time curve): LC/MS/MS; for clearance / MRT: plasma; for clearance: read-out: CL (apparent plasma clearance); for MRT: read-out: MRT (mean residence time)
# in vivo [9] = conditions: monkey, 2 mg/kg
# [10] = Pharmacokinetic evaluation in monkey, single intravenous dosage; conditions: single intravenous dosage (2 mg/kg), LC/MS/MS
# VLA-4-expressing cells = conditions: Wang et al. 1995; cited from earlier work
# [11] = female, Balb/c, serum, po, 10 mg/kg
# [12] = 10 mg/kg (p.o.), line of AUC 0–6 hr
# [13] = 10 mg/kg (p.o.), line of AUC 0–∞
# [14] = iv, 10 mg/kg (i.v.), line of AUC 0–6 hr
# [15] = iv, 10 mg/kg (i.v.), line of AUC 0–∞
# [16] = po, 10 mg/kg (p.o.), line of AUC 0–6 hr
# [17] = po, 10 mg/kg (p.o.), line of AUC 0–∞
# [18] = iv, 10 mg/kg, 10 mg/kg (i.v.), line of AUC 0–6 hr
# [19] = iv, 10 mg/kg, 10 mg/kg (i.v.), line of AUC 0–∞
compound,measurement,setting,value
"COC(=O)c1ccc(OC[C@@H]2C[C@@H](N(C)C)CN2C(=O)Cc2ccc(NC(=O)Nc3ccccc3C)c(OC)c2)cc1 [Compound 156, methyl 4-[trans-4-dimethylamino-1-[3-methoxy-4-[N′-(2-methylphenyl)ureido]phenylacetyl]-(2S)-pyrrolidinyl]methoxybenzoate HCl salt]",concentration at 15 min,in vivo [1],285 ng/mL
"C=CCN(CCOc1ccc(C(=O)O)cc1)C(=O)Cc1ccc(NC(=O)Nc2ccccc2Br)c(OC)c1 [Compound 311, 4-[2-N-allyl-N-[4-[N′(2-bromophenyl)ureido]-3-methoxyphenyl]acetamido]ethoxybenzoic acid]",% Inhibition of Eosinophil Infiltration,"eosinophil infiltration [2]; 50 mg/kg t.i.d. × 2 days, p.o.",42.5%
same,% Inhibition of Eosinophil Infiltration,"eosinophil infiltration [2]; 50 mg/kg t.i.d. × 2 days, s.c., 50 mg/kg",80.2% and 49.3%
"Cc1cc(CC(=O)N2C[C@@H](F)C[C@H]2COc2ccc(C(=O)O)cc2)ccc1NC(=O)Nc1ccccc1Cl [Compound 79, 4-[1-[4-[N′-(2-chlorophenyl)ureido]-3-methylphenylacetyl]-(4S)-fluoro-(2S)-pyrrolidinyl]methoxybenzoic acid]",% Inhibition of Eosinophil Infiltration,"eosinophil infiltration [2]; 30 mg/kg b.i.d. × 2 days, i.v.",35.9%
same,concentration at 15 min,[3]; [11],618 ng/mL
same,AUC (total area under the plasma concentration versus time curve),"[4]; 10 mg/kg (i.v.), 0–6 hr",5259 (0–6 hr) ng · h/mL
same,AUC (total area under the plasma concentration versus time curve),"[4]; 10 mg/kg (i.v.), 0–∞",5389 (0–∞) ng · h/mL
same,AUC (total area under the plasma concentration versus time curve),"[4]; 10 mg/kg (p.o.), 0–6 hr",22119 (0–6 hr) ng · h/mL
same,AUC (total area under the plasma concentration versus time curve),"[4]; 10 mg/kg (p.o.), 0–∞",24867 (0–∞) ng · h/mL
same,CL (apparent plasma clearance),[4]; [12],8.5 mL/min/kg
same,CL (apparent plasma clearance),[4]; [13],6.7 mL/min/kg
same,clearance,[4]; [14],31.7 mL/min/kg
same,MRT,[4]; [14],24 min
same,clearance,[4]; [15],30.9 mL/min/kg
same,MRT,[4]; [15],36 min
same,MRT,[4]; [16],30 min
same,MRT,[4]; [17],42 min
phenylacetic acid-Leu-Asp-Phe-d-Pro-amide,accelerated coronary arteriopathy in rabbit cardiac allografts,[5],reduced
same,VLA-4-mediated lymphocyte adherence in vitro,[6],inhibited
"Cc1cc(CC(=O)N2C[C@@H](F)C[C@H]2COc2ccc(C(=O)O)cc2)ccc1NC(=O)Nc1ccccc1Br [Compound 80, 4-[1-[4-[N′-(2-bromophenyl)ureido]-3-methylphenylacetyl]-(4S)-fluoro-(2S)-pyrrolidinyl]methoxybenzoic acid]",% Inhibition of Eosinophil Infiltration,"eosinophil infiltration [7]; 50 mg/kg 2 days, s.c.",65.3%
same,AUC (total area under the plasma concentration versus time curve),"[8]; 10 mg/kg (i.v.), 0–6 hr",5259 (0–6 hr) ng · h/mL
same,AUC (total area under the plasma concentration versus time curve),"[8]; 10 mg/kg (i.v.), 0–∞",5389 (0–∞) ng · h/mL
same,AUC (total area under the plasma concentration versus time curve),"[8]; 20 mg/kg (p.o.), 0–6 hr",2190 (0–6 hr) ng · h/mL
same,AUC (total area under the plasma concentration versus time curve),"[8]; 20 mg/kg (p.o.), 0–∞",3615 (0–∞) ng · h/mL
same,CL (apparent plasma clearance),"[8]; 20 mg/kg (p.o.), line of AUC 0–6 hr",152.24 mL/min/kg
same,CL (apparent plasma clearance),"[8]; 20 mg/kg (p.o.), line of AUC 0–∞",92.21 mL/min/kg
same,clearance,[8]; [18],31.7 mL/min/kg
same,MRT,[8]; [18],24 min
same,clearance,[8]; [19],30.9 mL/min/kg
same,MRT,[8]; [19],36 min
same,MRT,"[8]; po, 20 mg/kg, 20 mg/kg (p.o.), line of AUC 0–6 hr",138 min
same,MRT,"[8]; po, 20 mg/kg, 20 mg/kg (p.o.), line of AUC 0–∞",390 min
same,concentration at 15 min,[3]; [11],693 ng/mL
"O=C(Nc1ccccc1Cl)Nc1ccc(CC(=O)N2C[C@@H](F)C[C@H]2COc2ccc(C(=O)O)cc2)cc1Br [Compound 95, 4-[1-[3-bromo-4-[N′-(2-chlorophenyl)ureido]phenylacetyl]-(4S)-fluoro-(2S)-pyrrolindinyl]methoxybenzoic acid]",% Inhibition of Eosinophil Infiltration,"eosinophil infiltration [7]; 50 mg/kg 2 days, s.c.",40.9%
"Cc1ccccc1NC(=O)Nc1ccc(CC(=O)N2C[C@@H](F)C[C@H]2COc2ccc(C(=O)O)cc2)cc1Cl [Compound 90, 4-[1-[3-chloro-4-[N′-(2-methylphenyl)ureido]phenylacetyl]-(4S)-fluoro-(2S)-pyrrolidinyl]methoxybenzoic acid]",% Inhibition of Eosinophil Infiltration,"eosinophil infiltration [7]; 3 mg/kg 2 days, i.v.",25.4%
same,% Inhibition of Eosinophil Infiltration,"eosinophil infiltration [7]; 10 mg/kg 2 days, i.v.",46.7%
same,% Inhibition of Eosinophil Infiltration,"eosinophil infiltration [7]; 30 mg/kg 2 days, i.v.",83.7%
same,% Inhibition of Eosinophil Infiltration,"eosinophil infiltration [7]; 50 mg/kg 2 days, p.o.",50.5%
same,AUC (total area under the plasma concentration versus time curve),"[8]; 10 mg/kg (i.v.), 0–6 hr",8995 (0–6 hr) ng · h/mL
same,AUC (total area under the plasma concentration versus time curve),"[8]; 10 mg/kg (i.v.), 0–∞",9219 (0–∞) ng · h/mL
same,AUC (total area under the plasma concentration versus time curve),"[8]; 10 mg/kg (p.o.), 0–6 hr",2540 (0–6 hr) ng · h/mL
same,AUC (total area under the plasma concentration versus time curve),"[8]; 10 mg/kg (p.o.), 0–∞",2950 (0–∞) ng · h/mL
same,CL (apparent plasma clearance),[8]; [12],65.62 mL/min/kg
same,CL (apparent plasma clearance),[8]; [13],56.50 mL/min/kg
same,clearance,[8]; [18],18.5 mL/min/kg
same,MRT,[8]; [18],30 min
same,clearance,[8]; [19],18.1 mL/min/kg
same,MRT,[8]; [19],42 min
same,MRT,"[8]; po, 10 mg/kg, 10 mg/kg (p.o.), line of AUC 0–6 hr",72 min
same,MRT,"[8]; po, 10 mg/kg, 10 mg/kg (p.o.), line of AUC 0–∞",150 min
same,% Inhibition of Eosinophil Infiltration,"eosinophil infiltration [2]; 10 mg/kg t.i.d. × 2 days, p.o.",18.1%
same,% Inhibition of Eosinophil Infiltration,"eosinophil infiltration [2]; 30 mg/kg b.i.d. × 2 days, i.v.",47.3%
same,% Inhibition of Eosinophil Infiltration,"eosinophil infiltration [2]; 30 mg/kg t.i.d. × 2 days, p.o.",39.1%
same,% Inhibition of Eosinophil Infiltration,"eosinophil infiltration [2]; 50 mg/kg t.i.d. × 2 days, p.o.",45.9%
same,Serum Concentration,"[3]; oral, 10 mg/kg, 15 minutes post-administration",3659 ng/mL
same,AUC (total area under the plasma concentration versus time curve),"[4]; 10 mg/kg (i.v.), 0–6 hr",31915 (0–6 hr) ng · h/mL
same,AUC (total area under the plasma concentration versus time curve),"[4]; 10 mg/kg (i.v.), 0–∞",33488 (0–∞) ng · h/mL
same,AUC (total area under the plasma concentration versus time curve),"[4]; 10 mg/kg (p.o.), 0–6 hr",11454 (0–6 hr) ng · h/mL
same,AUC (total area under the plasma concentration versus time curve),"[4]; 10 mg/kg (p.o.), 0–∞",19968 (0–∞) ng · h/mL
same,CL (apparent plasma clearance),[4]; [12],17.85 mL/min/kg
same,CL (apparent plasma clearance),[4]; [13],9.99 mL/min/kg
same,clearance,[4]; [14],5.23 mL/min/kg
same,MRT,[4]; [14],48 min
same,clearance,[4]; [15],4.98 mL/min/kg
same,MRT,[4]; [15],66 min
same,MRT,[4]; [16],102 min
same,MRT,[4]; [17],528 min
4-(N′-2-methylphenylurea)phenylacetyl-LDVP-OH [reference compound],% Inhibition of Eosinophil Infiltration,eosinophil infiltration [2]; oral dosage of 50 mg/kg,−2%
COc1cc(CC(=O)N2CC(O)C(O)C2C(=O)N2CCN(CC(=O)O)CC2)ccc1NC(=O)Nc1ccccc1C (centres unmarked) [Compound 195],clearance,"in vivo [9]; plasma, iv",4 mL/min/kg
same,concentration at 5 min,"in vivo [9]; serum, intravenous",65400 ng/mL
same,concentration at 30 min,"in vivo [9]; serum, intravenous",3900 ng/mL
same,concentration at 1 hr,"in vivo [9]; serum, intravenous",2220 ng/mL
same,concentration at 2 hr,"in vivo [9]; serum, intravenous",772 ng/mL
same,concentration at 4 hr,"in vivo [9]; serum, intravenous",194 ng/mL
same,concentration at 8 hr,"in vivo [9]; serum, intravenous",28 ng/mL
same,AUC (total area under the plasma concentration versus time curve),[10],8405 ng·h/mL
"O=C(Nc1ccc(CC(=O)N2C[C@@H](F)C[C@H]2COc2ccc(C(=O)O)cc2)cc1Cl)Nc1ccccc1Br [Compound 92, 4-[1-[4-[N′-(2-bromophenyl)ureido]-3-chlorophenylacetyl]-(4S)-fluoro-(2S)-pyrrolidinyl]methoxybenzoic acid]",% Inhibition of Eosinophil Infiltration,"eosinophil infiltration [7]; 50 mg/kg 2 days, s.c.",43.1%
same,concentration at 15 min,[3]; [11],2160 ng/mL
CQIDSPC [Synthetic VCAM-1 peptide],adhesion of VLA-4-expressing cells to purified VCAM-1,VLA-4-expressing cells,inhibit the adhesion
"COc1cc(C(=O)O)ccc1C#CC1CCCN1C(=O)Cc1ccc(NC(=O)Nc2ccccc2C)c(OC)c1 (centres unmarked) [Compound 36, 3-methoxy4-[2-[1-[3-methoxy4-[N′-(2-methylphenyl)ureido]phenylacetyl]-2-pyrrolidinyl]ethynyl]benzoic acid]",inhibition of eosinophil infiltration,eosinophil infiltration [2]; oral dosage of 30 mg/kg,49%
same,melting point,,141 to 145 °C
"COC(=O)c1ccc(OCCN(CCN2CCOCC2)C(=O)Cc2ccc(NC(=O)Nc3ccccc3C)c(OC)c2)cc1 [Compound 314, methyl 4-[2-N-[2-(4-morpholinyl)ethyl]-N-[3-methoxy-4-[N′-(2-methylphenyl)ureido]phenyl]-acetamido]ethoxybenzoate]",% Inhibition of Eosinophil Infiltration,"eosinophil infiltration [2]; 50 mg/kg t.i.d. × 2 days, p.o.",18.9%
same,concentration at 30 min,"[3]; female, Balb/c, serum, po, 50 mg/kg",2310 ng/mL
